Assay results taken from patent US20190307771A1, “METHODS AND COMPOSITIONS FOR THE TREATMENT OF CANCER AND METABOLIC DISEASES” (THE REGENTS OF THE UNIVERSITY OF CALIFORNIA, priority 2016, published 2019).
Entries after “also recorded” stand apart in the source; their conditions may differ.

Assays:
[1] = system: Class I (HDAC1, 2, 3, and 8) and Class IIa (HDAC4, 5, 7, and 9); details: cited from earlier work
[2] = system: HCT116 colon cancer cells; assay: MTT cell viability assay in HCT116 cells; assay type: cell-based; details: RA 10 μM, butyrate 5 mM, SAHA 5 μM; for Cell viability (MTT assay): 24 hours; for Cell viability: 48 hours, propionate 10 mM, valerate 10 mM, vs. DMSO
Protocol: Cell viability was monitored by MTT assay.
HCT116 cells (American Type Culture Collection) were maintained in McCoy's 5a medium from Gibco (Life Technologies, Carlsbad, Calif.) with 10% FBS. Cells were plated (1×10^6 cells per 60-mm dish, 2×10^5 cells per 6-well plates, and 1×10^5 cells per 24-well plates) overnight prior to treatment or transfection.
Cells were stained with 3-(4,5-dimethylthiazol-2-O-2,5-diphenyltetrazolium bromide (MTT, Sigma-Aldrich, St. Louis, Mo.) and measured at 570 nm with Microplate Reader (Biotek, Winooski, Vt.).

miR-22 = miR-22 expression in HCT116 cells (qRT-PCR); assay type: cell-based; details: 24 hours, RA 10 μM, butyrate 5 mM, propionate 10 mM, valerate 10 mM, SAHA 5 μM
Protocol: To study the effect of RA and HDAC inhibitors on miR-22 expression, HCT116 cells were treated with RA, butyrate, propionate, valerate, and SAHA. The SCFA concentrations used were within physiologic ranges^35.
(§1) Total RNA was extracted with TRIzol Reagent (Invitrogen, Carlsbad, Calif.), and cDNA was generated using High Capacity RNA-to-cDNA Kit (Applied Biosystems, Carlsbad, Calif.). qRT-PCR was performed on ABI 7900HT Fast Real time PCR system using Power SYBR® Green PCR Master Mix (Applied Biosystems, Carlsbad, Calif.).

[3] = system: retinoic acid receptor beta (RARβ); assay: RARB expression in HCT116 cells (qRT-PCR); assay type: cell-based; details: 24 hours, RA 10 μM, butyrate 5 mM, SAHA 5 μM
Protocol: as §1

RARB and NUR77 genes = assay: ChIP-qPCR: HDAC recruitment and H3K9 acetylation at RARB and NUR77 genes in HCT116 cells; assay type: cell-based; details: RA 10 μM, butyrate 5 mM, SAHA 5 μM; for H3K9 acetylation of NUR77 and RARβ genes (ChIP-qPCR) / Recruitment of HDAC1, HDAC4, and SIRT1 to the regulatory region of NUR77 and RARβ (ChIP-qPCR): 24 hours
Protocol: Cell lysates were used for ChIP with antibodies specific for HDAC1, HDAC4, SIRT1, or acetylated H3K9, followed by qPCR using primers specific for the RARB and NUR77 genes. DMSO treated cells and IP using IgG were included as negative controls. […]inding was expressed relative to the IgG negative controls.
(§2) Chromatin immunoprecipitation (ChIP)-qPCR ChIP-qPCR was performed as described previously^21. Briefly, chromatin lysate was precleared before incubation with an anti-H3K9AC antibody (Millipore. Billerica, Mass.), anti-HDAC1 and anti-HDAC4 (Cell signaling technology, Beverly, Mass.) or anti-SIRT1 antibody (Santa Cruz Biotechnology, Santa Cruz, Calif.). IgG (Santa Cruz Biotechnology, Santa Cruz, Calif.) and RNA Polymerase II antibody (Millipore, Billerica, Mass.) were used as negative and positive controls, respectively. Samples were incubated with Dynase beads at 4° C. overnight followed by de-crosslinking and purification. DNA fragments generated served as templates for qPCR using Power SYBR1 Green PCR Master Mix.

NUR77 and RARβ [4] = assay: Induction and localization of NUR77 and RARβ in HCT116 cells; assay type: cell-based; details: 48 hours, RA 10 μM, butyrate 5 mM, SAHA 5 μM, EGF 32 nM
Protocol: Proteins were immunoprecipitated by anti-NUR77 or anti-RARβ antibodies, or IgG, followed by Western blot using anti-RARβ or anti-NUR77 antibodies.
To study the effect of miR-22 in induction of cytosolic NUR77 by RA/butyrate, adenoviral-delivery of miR-22 inhibitors tagged with green fluorescence (adeno-miR-22 inhibitor-GFP, Applied Biological Materials Inc, Richond, BC) were used to infect HCT116 cells. At 48 hours post adenoviral infection, cells were treated with RA (10 μM) plus butyrate (5 mM) or DMSO for 24 hours. […] Cells were mounted in ProLong® Gold Antifade Reagent with DAPI (4′,6-diamidino-2-phenylindole, Life Technologies, Carlsbad, Calif.) and imaged under Keyence BZ-9000 microscope.

NUR77 and RARβ [5] = assay: Immunoprecipitation/Western blot: protein acetylation of NUR77 and RARβ; assay type: cell-based; details: HCT116 cells; IP with anti-NUR77 or anti-RARβ, anti-acetyl lysine blot
From the text: FIG. 12A depicts the expression levels of proteins that were extracted from HCT116 cells and immunoprecipitated by anti-NUR77 and RARβ antibodies or IgG, followed by Western blot using an anti-acetyl lysine antibody. […] The mRNA levels of NUR77 target genes BRE as well as CCND2 and RARβ target genes RARβ and CYP26A1 in HCT116 cells are shown in FIG. 12C.
(§3) NUR77 and RARβ acetylation status was also studied because protein acetylation alters nuclear receptor activity^37. […] To study the effect of RA/butyrate in modulating NUR77 and RARβ transcriptional activity, ChIP-qPCR and RT-PCR were performed to determine receptor binding to transcriptional regulatory regions and mRNA levels of downstream targets, respectively.
Western blot and immunoprecipitation were performed as described previously^22. Specific antibodies used included anti-NUR77, RARβ, SIRT1, β-actin, and IgG (Santa Cruz Biotechnology, Santa Cruz, Calif.), phospho-JNK1/2, total JNK1/2, cleaved caspase3, HDAC1 and HDAC4 (Cell Signaling Technology, Beverly, Mass.), and CCNA2 (Novus Biologicals, Littleton, Colo.). To detect protein acetylation of NUR77 and RARβ, cell lysates (500 μg) were incubated with anti-NUR77, RARβ, or IgG antibody (1 μg), precipitated by adding Dynabeads (30 μl, Life Technologies, Carlsbad, Calif.), and probed with anti-Acetyl-lysine antibody (Cell Signaling Technology, Beverly, Mass.). To study the interaction between RARβ and NUR77, whole-cell lysates were precipitated with anti-RARβ or NUR77 antibody followed by Western blot using anti-NUR77 or RARβ antibody.

NUR77 = assay: ChIP-qPCR and RT-PCR: NUR77 binding to BRE and CCND2 and their mRNA; assay type: cell-based; details: HCT116 cells
Protocol: as §3, §2

RARβ = assay: ChIP-qPCR: RARβ binding to DR5 motif upstream of RARβ and CYP26A1 genes; assay type: cell-based; details: HCT116 cells
Protocol: as §3, §2

[6] = system: Gpr41, Gpr43, Gpr109a, Pgc1α, Pepck, Fas; assay: Ileal and hepatic mRNA levels in mice after oral gavage; assay type: in vivo, C57BL/6 mice; details: RA 15 mg/kg and/or butyrate 500 mg/kg, oral gavage every other day for one week
[7] = system: HDAC1, HDAC4, SIRT1, cyclin A2 (CCNA2); assay: Western blot of protein deacetylases and cyclin A2 in HCT116 cells; assay type: cell-based; details: 24 hours, RA 10 μM, butyrate 5 mM, SAHA 5 μM
[8] = system: liver cancer cells (Huh7, Hep3B, HepG2); details: cited from earlier work
[9] = cited from earlier work
[10] = system: liver cancer cells (Huh7, Hep3B, HepG2); assay: Apoptosis of liver cancer cells; details: prevented by NUR77 siRNA

SMILES	Inhibition of HDAC classes [1]	Cell viability (MTT assay) [2]	Cell viability [2]	miR-22 expression level (miR-22)	RARB (RARβ) expression / transcription [3]	H3K9 acetylation of NUR77 and RARβ genes (ChIP-qPCR) (RARB and NUR77 genes)	Recruitment of HDAC1, HDAC4, and SIRT1 to the regulatory region of NUR77 and RARβ (ChIP-qPCR) (RARB and NUR77 genes)	Histone acetylation (H3K9Ac) in the gene encoding RARβ (ChIP-qPCR) (RARB and NUR77 genes)	Recruitment of HDAC4 and SIRT1 to the RARB gene (ChIP-qPCR) (RARB and NUR77 genes)	Induction and localization of NUR77 and RARβ (immunostaining) (NUR77 and RARβ [4])	Acetylated NUR77 and RARβ (NUR77 and RARβ [5])	NUR77 binding to BRE and CCND2 promoter regions and their mRNA levels (NUR77 transcriptional activity) (NUR77)	Increase of RARβ binding to the DR5 motif upstream of RARβ and CYP26A1 genes (RARβ) [folds]	Protein levels of HDAC1, HDAC4, SIRT1, and cyclin A2 (CCNA2) [7]	Apoptosis of Huh7 cells [10]	also measured
CC(/C=C/C(=O)NO)=C\[C@@H](C)C(=O)c1ccc(N(C)C)cc1 [trichostatin A]	inhibit Class I (HDAC1, 2, 3, and 8) and Class IIa (HDAC4, 5, 7, and 9)	–	–	–	–	–	–	–	–	–	–	–	–	–	–	–
CCCC(=O)[O-].[Na+] [butyrate, sodium butyrate]	inhibit Class I (HDAC1, 2, 3, and 8) and Class IIa (HDAC4, 5, 7, and 9)	reduced cell viability	Markedly reduced cell viability	upregulated; also recorded: induce miR-22; also recorded: induced; also recorded: increased miR-22 level	upregulated	increased H3K9 acetylation	decreased recruitment of HDAC1, HDAC4, and SIRT1	increased histone acetylation	reduced the recruitment of HDAC4 and SIRT1; also recorded: decreased the recruitment of HDAC4 and SIRT1	markedly induced NUR77 and RARβ	only increased acetylated NUR77	reduced NUR77 binding	4	reduced HDAC1, HDAC4, SIRT1, and CCNA2 protein levels	–	Expression of Gpr41 and Gpr43 [6]: could induce the expression; Expression of Gpr109a [6]: induced Gpr109a
CC1=C(/C=C/C(C)=C/C=C/C(C)=C/C(=O)Nc2ccc(O)cc2)C(C)(C)CCC1 [fenretinide, N-(4-hydroxyphenyl) retinamide]	–	–	–	–	–	–	–	–	–	–	–	–	–	–	induced apoptosis of Huh7 cells	Apoptotic effect in HepG2 ([8]; HepG2 vs. Huh7 and Hep3B): resistant to the apoptotic effect; Apoptosis of liver cancer cells ([8]; published studies): effectively induces apoptosis of liver cancer cells; also recorded: much better apoptosis inducer than RA; Tumor response ([9]; NCI case report, advanced cutaneous T-cell lymphoma patient): tumor response; Stabilization of the disease ([9]; Phase II, small cell lung cancer): 24 % of the patients; Tolerability ([9]; breast cancer chemoprevention study (3000 patients, 5 year), Phase II small cell lung cancer): well tolerated in humans; also recorded: well tolerated in patients with small cell lung cancer
O=C(CCCCCCC(=O)Nc1ccccc1)NO [SAHA, suberanilohydroxamic acid]	–	reduced cell viability	significantly reduced cell viability; also recorded: Markedly reduced cell viability	upregulated; also recorded: could induce miR-22; also recorded: induced; also recorded: increased miR-22 level	upregulated	increased H3K9 acetylation	decreased recruitment of HDAC1, HDAC4, and SIRT1	increased histone acetylation	reduced the recruitment of HDAC4 and SIRT1	markedly induced NUR77 and RARβ	increased acetylated NUR77 and RARβ	reduced NUR77 binding	2.5	reduced HDAC1, HDAC4, SIRT1, and CCNA2 protein levels	–	–
O=C(CCCCCN1C(=O)c2cccc3cccc(c23)C1=O)NO [Scriptaid]	–	–	–	–	–	–	–	–	–	–	–	–	–	–	induced apoptosis of Huh7 cells	–
